“Also recorded” adds a separate entry of the source.
Assays:
[1] = tested on: subject with left-side trigeminal neuralgia and facial droop; assay: Treatment of trigeminal neuralgia and facial palsy; assay type: in vivo, human; settings: progesterone 1% (1 mg) four times daily to forehead followed by 0.15 g ganciclovir (0.15% formulation) up to five times daily
Method: A subject presented with left-side trigeminal neuralgia and left side facial droop of 10 years duration. Therapy was initiated by topically applying progesterone (1% by weight) equivalent to 1 mg four times daily to the patient's forehead. This was followed by application of 0.15 g ganciclovir (as a 0.15% by weight formulation) up to five times daily.

patients with dyslexia = assay: Treatment of dyslexia and impaired executive brain function exacerbated by traumatic brain injury; assay type: in vivo, human; settings: person
Method: A patient had been diagnosed in childhood with dyslexia. Symptoms included unstable binocular fixation while reading, the inability without compensating to find the end of one line and beginning of the next, and double overlapping perception of lines of print. They were also unable to read aloud in a fluid manner.
The individual applied a topical gel containing 4% by weight progesterone (4 mg of drug) to the forehead area.
The application was repeated twice over the next few days and the patient tested themself by reading text.
Regular treatment was continued for 10 weeks with the 4% progesterone gel applied to the forehead twice daily. The patient reported that in living with dyslexia for 52 years, they had never experienced as much stress relief in their visual system after the treatment.
After 8 weeks of treatment, the individual was asked to read aloud a complex paragraph of 8 sentences from their computer screen.
Treatment was interrupted after 10 weeks to determine the duration of benefit.
Seven years prior to initiation of progesterone topical treatment, the patient had suffered traumatic brain injury (TBI) in an auto accident. They reported exacerbation of their vision problems as a result of the accident.
After the crash they suffered from post-traumatic stress disorder triggered by loud sounds. The patient could not even listen to music because it would induce nausea. Two months after initiation of the progesterone treatment, they regained a good deal of social conformability, improved their ability to organize thoughts, eliminated their disjointed thinking, and gained the ability to write coherently.
A person who had been diagnosed with severe reading problems in third grade was later recognized as having dyslexia. Their reading problems became exacerbated by an automobile accident in 1980, following six months of coma. In general reading was a chore. However they made a concerted effort to learn to read, starting with children's books, and is now able to read regular print. Reading issues were exemplified by the need to place a ruler below each line so that they can follow the line and find the next line, and seeing letters backwards. They are not able to read small print at all. About 4 years ago their vision became worse. They were prescribed glasses that they use during periods when vision is worse than usual, whether near, intermediate, or far in distance.
A 1% progesterone topical composition was applied to forehead. […] The effect lasted from the time of application, around 7:30 pm to bedtime at around 11 pm.

[2] = tested on: patients with ocular discomfort resulting from dry eye; assay: Treatment of dry eye with topical progesterone applied cranially; assay type: in vivo, human
Method: Twenty-seven patients diagnosed with ocular discomfort resulting from dry eye were treated with topical progesterone (0.5%-1% by weight, corresponding to approximately 1-4 mg progesterone per application) applied to the forehead either once or twice per day.
A summary of clinical results is shown below in Table 2.

[3] = tested on: person with blepharospasm; assay: Treatment of blepharospasm; assay type: in vivo, human; settings: fourteen days of 1% progesterone gel to forehead; before treatment 73
Source text: Upon ophthalmic re-examination following fourteen days of 1% progesterone gel applied topically to the forehead, the blink rate had decreased to 18 times per minute.

[4] = tested on: male and female with cyclosporine-induced eye irritation; assay: Treatment of drug-induced eye irritation; assay type: in vivo, human; settings: 1% progesterone to forehead after cleaning off drug residual; within two minutes
Source text: Ten minutes later, drug residual was cleaned off from the forehead, and 1% progesterone was applied.

[5] = tested on: dogs with mucus discharge from the eyes; assay: Treatment of dry eye in domestic animals; assay type: in vivo, dog
Source text: A puggle presented with mucus discharge from the eyes. […] The owner reported that the dog has this problem spring and fall, which indicates it is allergic seasonal rhinitis. The reported use took place in the fall.
A bulldog diagnosed with Sjogren's syndrome had mucus discharge from the eyes.

[6] = tested on: females with wrist fracture pain or wrist arthritis; assay: Treatment of pain; assay type: in vivo, human; settings: person
Source text: A person suffered a wrist fracture of the left distal radius and ulnar styloid, with subsequent severe pain.
A person was diagnosed 10 years ago with arthritis in their right wrist, with pain, weakness, and limited motion in the hand and wrist. […] The condition has worsened since they were first diagnosed. The individual is being treated with regular steroid injections. […] They are able to twist open tightly closed containers. Additionally, bone snapping sounds and feelings are no longer present.

[7] = tested on: patient with corneal Herpes zoster; assay: Treatment of herpetic keratitis; assay type: in vivo, human; settings: one year, 1 mg progesterone to forehead 2 or 3 times a day, no other drugs
[8] = 1% progesterone topical composition to forehead

`CC(=O)[C@H]1CC[C@H]2[C@@H]3CCC4=CC(=O)CC[C@]4(C)[C@H]3CC[C@]12C` [progesterone] was tested, and the “facial muscles contracted for 10 years” value [1] was “relaxation of facial muscles”, the “reading and vision (patient report)” value (patients with dyslexia; [8]) was “able to read without using; also recorded: distance vision also improved; also recorded: no longer bothered by the headlight glare; also recorded: Reapplication next morning restored vision improvements” and the “time until they could feel a clearing in their head” value (patients with dyslexia; [8]) was “About 5 minutes”. The “reading ability and visual system (patient report)” value (patients with dyslexia; 4% progesterone gel to forehead, single applications then twice daily up to 10 weeks) was “effect lasting for hours; also recorded: slightly better and easier reading and line tracking; also recorded: lasted for about four hours; also recorded: able to track from one end of a line of text to the beginning of the next line without using a ruler; also recorded: read aloud with less choppiness; also recorded: accurate and fluid with only one word lapse”, the “executive function and stress after traumatic brain injury” value (patients with dyslexia; 4% progesterone gel to forehead, two months) was “improved executive function; also recorded: much lower level of stress; also recorded: ability to do simple math in their head” and the “time until eyes relaxed into alignment” value (patients with dyslexia; gel 4% progesterone (4 mg) to forehead) was no more than 60 s. For the same molecule, the “duration of benefit after interruption” value (patients with dyslexia; ten days after stopping 10 weeks of 4% progesterone gel) was “continued benefit with only slight degradation”, the Results ([2]; 0.5-1% on the forehead, once daily) was “After prolonged use, no longer requires; also recorded: Eyes moist and tearing minutes after; also recorded: application. Stopped all auxiliary eye” and the Results ([2]; 1% progesterone ON) was “Equally effective. Uses nightly once a day”. For the same molecule, the “overall clinical result in twenty-seven dry eye patients” value ([2]; progesterone 0.5%-1% (about 1-4 mg per application) to forehead once or twice per day) was “Improvement was seen in all cases; also recorded: Most patients were able to discontinue previous therapy”, the “time until moisture felt” value ([2]; subject 4, 1% progesterone) was “moisture felt after 10 minutes; after weeks” and the blink rate [3] was 18 times per minute. The “relief of cyclosporine-induced irritation and stinging” value [4] was “irritation and stinging began to dissipate”, the “time to effect on mucus discharge from the eyes” value ([5]; progesterone to the dog's forehead (puggle; bulldog with Sjogren's syndrome)) was no more than 24 h and the “mucus discharge from the eyes” value ([5]; progesterone topical forehead treatment, daily) was “the problem no longer recurred; also recorded: cessation of mucus discharge”. The “wrist pain, mobility and strength” value ([6]; arthritis, five days after applying 1% progesterone to forehead) was “significantly less wrist pain and increased mobility and strength”, the “time to significant decrease in pain” value ([6]; wrist fracture, approximately 4 mg progesterone to forehead) was no more than 15 min and the corneal perforation [7] was “the cornea remained unperforated”.

Source: US10251835B2, “Cranial delivery of pharmaceuticals” (GLIA, LLC, priority 2013, dated 2019)
